Counter-ions that a name gives are not always drawn.

The experiment has as its target T1, human MGL from HeLa cells (Homo sapiens, UniProt Q99685).
T1 construct: combining endogenously expressed MGL from HeLa cells with test compounds; endogenous in cells; host or cells: HeLa cells / cell homogenates
T1 sequence (Q99685 1-303): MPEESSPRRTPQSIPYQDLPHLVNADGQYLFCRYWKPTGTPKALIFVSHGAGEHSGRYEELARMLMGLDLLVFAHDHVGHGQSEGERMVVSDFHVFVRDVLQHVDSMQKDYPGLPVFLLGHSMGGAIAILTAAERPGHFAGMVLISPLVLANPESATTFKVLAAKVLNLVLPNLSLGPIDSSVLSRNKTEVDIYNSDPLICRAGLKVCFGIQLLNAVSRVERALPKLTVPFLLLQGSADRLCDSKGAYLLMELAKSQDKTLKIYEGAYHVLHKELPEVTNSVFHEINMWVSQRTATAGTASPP
The experiment in a line: In vitro MGL activity assay: [glycerol-1,3-3H]-oleyl glycerol cleavage by MGL from HeLa cells. The class given is biochemical. As to conditions: 300 nM [Glycerol-1,3-3H]-oleyl glycerol, one hour. From the text:
MGL is the predominant hydrolase in HeLa cells/cell homogenates.
In general, IC50 refers to the concentration needed to halve the response being measured. A higher IC50 goes with a need for much substance. Compound `C[C@H]1c2nn(C)c(-c3cc(F)c(F)c(F)c3)c2CCN1C(=O)c1c(C(F)(F)F)cnc2[nH]ccc12` [Example 371, [(7S)-2,7-Dimethyl-3-(3,4,5-trifluorophenyl)-5,7-dihydro-4H-pyrazolo[3,4-c]pyridin-6-yl]-[5-(trifluoromethyl)-1H-pyrrolo[2,3-b]pyridin-4-yl] methanone] showed an IC50 of 136 nM. Turning to `C[C@H]1c2nn(C)c(-c3cc(F)c(F)c(F)c3)c2CCN1C(=O)c1c[nH]c2ncccc12` [Example 373, [(7S)-2,7-Dimethyl-3-(3,4,5-trifluorophenyl)-5,7-dihydro-4H-pyrazolo[3,4-c]pyridin-6-yl]-(1H-pyrrolo[2,3-b]pyridin-3-yl)methanone], the IC50 turned out to be 23.2 nM.

Compound `C[C@H]1c2nn(C)c(-c3cc(F)c(F)c(F)c3)c2CCN1C(=O)c1c[nH]c2ncc(F)cc12` [Example 374, [(7S)-2,7-Dimethyl-3-(3,4,5-trifluorophenyl)-5,7-dihydro-4H-pyrazolo[3,4-c]pyridin-6-yl]-(5-fluoro-1H-pyrrolo[2,3-b]pyridin-3-yl)methanone] displayed an IC50 of 21 nM. For `Cc1[nH]c2ncccc2c1C(=O)N1CCc2c(nn(C)c2-c2cc(F)c(F)c(F)c2)[C@@H]1C` [Example 375, [(7S)-2,7-Dimethyl-3-(3,4,5-trifluorophenyl)-5,7-dihydro-4H-pyrazolo[3,4-c]pyridin-6-yl]-(2-methyl-1H-pyrrolo[2,3-b]pyridin-3-yl)methanone], the IC50 came to 30.3 nM. To `C[C@H]1c2nn(C)c(-c3cc(F)c(F)c(F)c3)c2CCN1C(=O)c1nccc2cc[nH]c12` [Example 376, [(7S)-2,7-Dimethyl-3-(3,4,5-trifluorophenyl)-5,7-dihydro-4H-pyrazolo[3,4-c]pyridin-6-yl]-(1H-pyrrolo[2,3-c]pyridin-7-yl)methanone] belongs 599 nM.

In turn, `C[C@H]1c2nn(C)c(-c3cc(F)c(F)c(F)c3)c2CCN1C(=O)c1cccn2ncc(F)c12` [Example 377, [(7S)-2,7-Dimethyl-3-(3,4,5-trifluorophenyl)-5,7-dihydro-4H-pyrazolo[3,4-c]pyridin-6-yl]-(3-fluoropyrazolo[1,5-a]pyridin-4-yl)methanone] gave an IC50 of 4.68 nM. The value for `C[C@H]1c2nn(C)c(-c3cc(F)c(F)c(F)c3)c2CCN1C(=O)c1ccn2ncc(F)c2c1` [Example 378, [(7S)-2,7-Dimethyl-3-(3,4,5-trifluorophenyl)-5,7-dihydro-4H-pyrazolo[3,4-c]pyridin-6-yl]-(3-fluoropyrazolo[1,5-a]pyridin-5-yl)methanone] was 38.8 nM; that for `C[C@H]1c2nn(C)c(-c3cc(F)c(F)c(F)c3)c2CCN1C(=O)c1cccn2ncc(Br)c12` [Example 379, (3-Bromopyrazolo[1,5-a]pyridin-4-yl)-[(7S)-2,7-dimethyl-3-(3,4,5-trifluorophenyl)-5,7-dihydro-4H-pyrazolo[3,4-c]pyridin-6-yl]methanone] was 45.5 nM. Take `Cc1cnn2cccc(C(=O)N3CCc4c(nn(C)c4-c4cc(F)c(F)c(F)c4)[C@@H]3C)c12` [Example 380, [(7S)-2,7-Dimethyl-3-(3,4,5-trifluorophenyl)-5,7-dihydro-4H-pyrazolo[3,4-c]pyridin-6-yl]-(3-methylpyrazolo[1,5-a]pyridin-4-yl)methanone]: the IC50 was determined as 44 nM. The IC50 values of the last two compounds are within 1.5-fold of each other. The value for `C[C@H]1c2nn(C)c(-c3cc(F)c(F)c(F)c3)c2CCN1C(=O)c1cnn2ccccc12` [Example 381, [(7S)-2,7-Dimethyl-3-(3,4,5-trifluorophenyl)-5,7-dihydro-4H-pyrazolo[3,4-c]pyridin-6-yl]-pyrazolo[1,5-a]pyridin-3-yl-methanone.TFA salt] was 10.7 nM; that for `Cc1nn2ccccc2c1C(=O)N1CCc2c(nn(C)c2-c2cc(F)c(F)c(F)c2)[C@@H]1C` [Example 382, [(7S)-2,7-Dimethyl-3-(3,4,5-trifluorophenyl)-5,7-dihydro-4H-pyrazolo[3,4-c]pyridin-6-yl]-(2-methylpyrazolo[1,5-a]pyridin-3-yl)methanone] was 4.26 nM. The value for `Cc1ccn2ncc(C(=O)N3CCc4c(nn(C)c4-c4cc(F)c(F)c(F)c4)[C@@H]3C)c2c1` [Example 383, [(7S)-2,7-Dimethyl-3-(3,4,5-trifluorophenyl)-5,7-dihydro-4H-pyrazolo[3,4-c]pyridin-6-yl]-(5-methylpyrazolo[1,5-a]pyridin-3-yl)methanone] was 6.39 nM; that for `C[C@H]1c2nn(C)c(-c3cc(F)c(F)c(F)c3)c2CCN1C(=O)c1cnn2cc(F)ccc12` [Example 384, [(7S)-2,7-Dimethyl-3-(3,4,5-trifluorophenyl)-5,7-dihydro-4H-pyrazolo[3,4-c]pyridin-6-yl]-(6-fluoropyrazolo[1,5-a]pyridin-3-yl)methanone] was 44 nM; that for `Cc1cccc2c(C(=O)N3CCc4c(nn(C)c4-c4cc(F)c(F)c(F)c4)[C@@H]3C)c(C3CC3)nn12` [Example 385, (2-Cyclopropyl-7-methyl-pyrazolo[1,5-a]pyridin-3-yl)-[(7S)-2,7-dimethyl-3-(3,4,5-trifluorophenyl)-5,7-dihydro-4H-pyrazolo[3,4-c]pyridin-6-yl]methanone] was 120 nM.

Compound `Cc1cccc2c(C(=O)N3CCc4c(nn(C)c4-c4cc(F)c(F)c(F)c4)[C@@H]3C)cnn12` [Example 386, [(7S)-2,7-Dimethyl-3-(3,4,5-trifluorophenyl)-5,7-dihydro-4H-pyrazolo[3,4-c]pyridin-6-yl]-(7-methylpyrazolo[1,5-a]pyridin-3-yl)methanone] had an IC50 of 11.7 nM.

`COc1cccc2c(C(=O)N3CCc4c(nn(C)c4-c4cc(F)c(F)c(F)c4)[C@@H]3C)cnn12` [Example 387, [(7S)-2,7-Dimethyl-3-(3,4,5-trifluorophenyl)-5,7-dihydro-4H-pyrazolo[3,4-c]pyridin-6-yl]-(7-methoxypyrazolo[1,5-a]pyridin-3-yl)methanone] returned an IC50 of 26.4 nM. This IC50 is about 2.3-fold higher than that of the compound before. The value for `COc1ccc2c(C(=O)N3CCc4c(nn(C)c4-c4cc(F)c(F)c(F)c4)[C@@H]3C)cnn2c1` [Example 388, [(7S)-2,7-Dimethyl-3-(3,4,5-trifluorophenyl)-5,7-dihydro-4H-pyrazolo[3,4-c]pyridin-6-yl]-(6-methoxypyrazolo[1,5-a]pyridin-3-yl)methanone.TFA salt] was 60.7 nM; that for `COc1ccn2ncc(C(=O)N3CCc4c(nn(C)c4-c4cc(F)c(F)c(F)c4)[C@@H]3C)c2c1` [Example 389, [(7S)-2,7-Dimethyl-3-(3,4,5-trifluorophenyl)-5,7-dihydro-4H-pyrazolo[3,4-c]pyridin-6-yl]-(5-methoxypyrazolo[1,5-a]pyridin-3-yl)methanone] was 9.94 nM. The value for `COc1cccn2ncc(C(=O)N3CCc4c(nn(C)c4-c4cc(F)c(F)c(F)c4)[C@@H]3C)c12` [Example 390, [(7S)-2,7-Dimethyl-3-(3,4,5-trifluorophenyl)-5,7-dihydro-4H-pyrazolo[3,4-c]pyridin-6-yl]-(4-methoxypyrazolo[1,5-a]pyridin-3-yl)methanone] was 12.6 nM; that for `C[C@H]1c2nn(C)c(-c3cc(F)c(F)c(F)c3)c2CCN1C(=O)c1ccc2nccn2c1` [Example 391, [(7S)-2,7-Dimethyl-3-(3,4,5-trifluorophenyl)-5,7-dihydro-4H-pyrazolo[3,4-c]pyridin-6-yl]-imidazo[1,2-a]pyridin-6-yl-methanone] was 103 nM; that for `C[C@H]1c2nn(C)c(-c3cc(F)c(F)c(F)c3)c2CCN1C(=O)c1cccn2ccnc12` [Example 392, [(7S)-2,7-Dimethyl-3-(3,4,5-trifluorophenyl)-5,7-dihydro-4H-pyrazolo[3,4-c]pyridin-6-yl]-imidazo[1,2-a]pyridin-8-yl-methanone] was 711 nM.

`C[C@H]1c2nn(C)c(-c3cc(F)c(F)c(F)c3)c2CCN1C(=O)c1cnc2cc(F)ccn12` [Example 393, [(7S)-2,7-Dimethyl-3-(3,4,5-trifluorophenyl)-5,7-dihydro-4H-pyrazolo[3,4-c]pyridin-6-yl]-(7-fluoroimidazo[1,2-a]pyridin-3-yl)methanone] came in with an IC50 of 252 nM.

Compound `Cc1cn2c(C(=O)N3CCc4c(nn(C)c4-c4cc(F)c(F)c(F)c4)[C@@H]3C)cccc2n1` [Example 394, [(7S)-2,7-Dimethyl-3-(3,4,5-trifluorophenyl)-5,7-dihydro-4H-pyrazolo[3,4-c]pyridin-6-yl]-(2-methylimidazo[1,2-a]pyridin-5-yl)methanone] yielded an IC50 of 140 nM. The compound `COc1cc(Cl)cc(-c2c3c(nn2C)[C@H](C)N(C(=O)c2c(C)nc4ccccn24)CC3)c1` [Example 395, [(7S)-3-(3-Chloro-5-methoxy-phenyl)-2,7-dimethyl-5,7-dihydro-4H-pyrazolo[3,4-c]pyridin-6-yl]-(2-methylimidazo[1,2-a]pyridin-3-yl) methanone] yielded an IC50 of 6.73 nM. In turn, `Cc1cc(F)cc(-c2c3c(nn2C)[C@H](C)N(C(=O)c2c(C)nc4ccccn24)CC3)c1` [Example 396, [(7S)-3-(3-Fluoro-5-methyl-phenyl)-2,7-dimethyl-5,7-dihydro-4H-pyrazolo[3,4-c]pyridin-6-yl]-(2-methylimidazo[1,2-a]pyridin-3-yl)methanone] gave a 50% inhibitory concentration (IC50) of 5.04 nM. The IC50 values of the last two compounds are within 1.5-fold of each other. `Cc1nc2ccccn2c1C(=O)N1CCc2c(nn(C)c2-c2cc(F)c(F)c(F)c2)[C@@H]1C` [Example 397, [(7S)-2,7-Dimethyl-3-(3,4,5-trifluorophenyl)-5,7-dihydro-4H-pyrazolo[3,4-c]pyridin-6-yl]-(2-methylimidazo[1,2-a]pyridin-3-yl)methanone] showed an IC50 of 10.3 nM.

For the origin of these results see patent US11820766B2, “Monoacylglycerol lipase modulators” (Janssen Pharmaceutica NV, priority 2018, dated 2023).
